According to patent US20240174618A1, “SUBSTITUTED (2-HETEROARYLOXYPHENYL)SULFONATES, SALTS THEREOF AND THEIR USE AS HERBICIDAL AGENTS” (Bayer Aktiengesellschaft, priority 2021, published 2024):

Tests used:
Format in all cases: in vivo
[1] = test system: Polygonum convolvulus (POLCO); assay: C. Herbicidal pre-emergence efficacy, POLCO; conditions: scored after about 3 weeks
Outline: (§1)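 Pre-emergence test: formulated compounds sprayed as aqueous suspension or emulsion with 0.5% additive at 600 l/ha onto soil covering sown seeds, at rates corresponding to 320 g/ha or less. After about 3 weeks in greenhouse, efficacy scored visually as percent versus untreated controls (100% = plants dead).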

[2] = test system: Setaria viridis (SETVI); assay: A. Herbicidal pre-emergence efficacy, SETVI
Outline: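 Applied before emergence onto covering soil at rates of 1280 g/ha or less, using 600 L/ha spray water with 0.5% additive. Scoring: visual % efficacy after ~3 weeks, greenhouse.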

[3] = test system: Triticum aestivum (TRZAS); assay: F. Post-emergence effect on useful plants, TRZAS; conditions: useful plant
Outline: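 Visual efficacy rating versus untreated plants, from 0% (no effect) to 100% (plants died), made about 3 weeks after post-emergence treatment. Formulated compounds (WP or EC, 0.5% additive, 600 l/ha water) were sprayed onto greenhouse-grown crops at the one-leaf stage, 2-3 weeks after sowing.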

[4] = test system: Lolium rigidum (LOLRI); assay: C. Herbicidal pre-emergence efficacy, LOLRI; conditions: 320 g/ha, scored after about 3 weeks
Outline: as §1

[5] = test system: Abutilon theophrasti (ABUTH); assay: C. Herbicidal pre-emergence efficacy, ABUTH; conditions: scored after about 3 weeks
Outline: as §1

[6] = test system: Triticum aestivum (TRZAS); assay: D. Pre-emergence effect on useful plants, TRZAS; conditions: useful plant, application rate 80 g/ha
Outline: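 Seeds sown in pots and covered with soil; WP or EC formulations sprayed on the soil surface as aqueous suspension/emulsion with 0.5% additive at 600 l/ha water. Plants grown in greenhouse; crop damage scored visually after about 3 weeks as % versus untreated controls (100% = dead, 0% = like control).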

[7] = test system: Abutilon theophrasti (ABUTH); assay: B. Herbicidal post-emergence efficacy, ABUTH; conditions: rated visually after about 3 weeks
Outline: (§2)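 First, seeds were sown in sandy loam and grown 2 to 3 weeks under controlled greenhouse conditions. Next, foliage at the one-leaf stage received the formulated compound in water with 0.5% additive (600 L/ha, 1280 g/ha or less). Finally, damage was rated visually after about 3 weeks against untreated plants.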

[8] = test system: Amaranthus retroflexus (AMARE); assay: B. Herbicidal post-emergence efficacy, AMARE
Outline: as §2

SMILES | Post-emergence efficacy against TRZAS in % ([3]; application rate 80 g/ha) | Post-emergence efficacy against TRZAS in % ([3]; application rate 320 g/ha) | Pre-emergence efficacy against TRZAS in % [6] | Pre-emergence efficacy against POLCO ([1]; 80 g/ha) | Pre-emergence efficacy against POLCO ([1]; 320 g/ha) | Pre-emergence efficacy against SETVI ([2]; dosage 80 g/ha) | Pre-emergence efficacy against SETVI ([2]; dosage 320 g/ha) | Pre-emergence efficacy against SETVI ([2]; dosage 1280 g/ha) | Pre-emergence efficacy against LOLRI [4] | Pre-emergence efficacy against ABUTH ([5]; 80 g/ha) | Pre-emergence efficacy against ABUTH ([5]; 320 g/ha) | Post-emergence efficacy against ABUTH in % ([7]; 320 g/ha) | Post-emergence efficacy against ABUTH in % ([7]; 1280 g/ha) | Post-emergence efficacy against AMARE ([8]; 1280 g/ha) | Post-emergence efficacy against AMARE ([8]; 320 g/ha) | Post-emergence efficacy against AMARE ([8]; 80 g/ha) | Post-emergence efficacy against ABUTH in % ([7]; 80 g/ha)
O=S(=O)(CCCC(F)(F)F)Oc1c(F)cccc1Oc1ncc(Br)cn1 [Example I-41] | 0% | – | 20% | 100% | 100% | 100% | 100% | 100% | 100% | 100% | 100% | – | – | 90% | 90% | – | –
O=S(=O)(CCCCl)Oc1ccccc1Oc1ncc(Cl)cn1 [Example I-2] | 0% | – | 0% | 90% | 100% | 100% | 100% | 100% | 100% | 100% | 100% | 100% | 100% | 100% | 100% | 100% | 100%
O=S(=O)(CCC(F)(F)F)Oc1ccccc1Oc1ncc(Cl)cn1 [Example I-8] | 20% | – | 20% | 90% | 90% | 100% | 100% | 100% | 100% | 100% | 100% | – | 90% | 100% | 100% | 90% | –

More lines, main results first:

Post-emergence efficacy against TRZAS in % ([3]; application rate 80 g/ha) | Post-emergence efficacy against TRZAS in % ([3]; application rate 320 g/ha) | Pre-emergence efficacy against TRZAS in % [6] | SMILES | Pre-emergence efficacy against POLCO ([1]; 80 g/ha) | Pre-emergence efficacy against POLCO ([1]; 320 g/ha) | Pre-emergence efficacy against SETVI ([2]; dosage 80 g/ha) | Pre-emergence efficacy against SETVI ([2]; dosage 320 g/ha) | Pre-emergence efficacy against SETVI ([2]; dosage 1280 g/ha) | Pre-emergence efficacy against LOLRI [4] | Pre-emergence efficacy against ABUTH ([5]; 80 g/ha) | Pre-emergence efficacy against ABUTH ([5]; 320 g/ha) | Post-emergence efficacy against ABUTH in % ([7]; 320 g/ha) | Post-emergence efficacy against ABUTH in % ([7]; 1280 g/ha) | Post-emergence efficacy against AMARE ([8]; 1280 g/ha) | Post-emergence efficacy against AMARE ([8]; 320 g/ha) | Post-emergence efficacy against AMARE ([8]; 80 g/ha) | Post-emergence efficacy against ABUTH in % ([7]; 80 g/ha)
0% | 0% | 0% | Cc1cccc(Oc2ncc(F)cn2)c1OS(=O)(=O)CCC(F)(F)F [Example I-45] | 100% | 100% | 90% | 100% | 100% | 90% | 100% | 100% | 100% | 100% | – | – | – | –
10% | 20% | 0% | O=S(=O)(CCC(F)(F)F)Oc1c(Cl)cccc1Oc1ncc(Cl)cn1 [Example I-38] | 100% | 100% | 90% | 100% | 100% | 100% | 100% | 100% | – | – | 90% | – | – | –
